Earlier results on two molecules are cited in patent US4350696A, “Imidazole derivatives, process for their preparation and pharmaceutical compositions thereof” (Pfizer Inc., priority 1980, dated 1982).

The test system of data set [1] is human blood platelet aggregation. The conditions noted are these: in vitro, a variety of aggregating agents.
The test system of data set [2] is platelet clumping and embolisation in the lungs. The settings on record: rabbit, intravenous injection of arachidonic acid.
The next data set relates to aggregation of platelets. The settings on record: rats in vivo, abdominal aorta loop.

Consider `CC(=O)Oc1ccccc1C(=O)O` [aspirin], for which, in data set [1], the “inhibitory activity against platelet aggregation” value is “show inhibitory activity”. The “protection from lethal effect of intravenous arachidonic acid” value in data set [2] is “protect the rabbit from the lethal effect of the injection”.
As for `O=C1C(CC[S+]([O-])c2ccccc2)C(=O)N(c2ccccc2)N1c1ccccc1` (stereo not shown) [sulphinpyrazone], in data set [1], the “inhibitory activity against platelet aggregation” value is on record as “show inhibitory activity”. In addition, in the data set with aggregation of platelets, the “prevention of platelet aggregation in extra corporeal loop” value is on record as “prevent the aggregation of platelets”.
